Reference: paper PMC9016025, “Translational imaging of the fibroblast activation protein (FAP) using the new ligand [^68Ga]Ga-OncoFAP-DOTAGA” (European Journal of Nuclear Medicine and Molecular Imaging, 2021)
Where two headings read alike, the source gives them in different places.

Legend:
[1] = tested on: patients with breast cancer; set-up: method as in PMID 34636633; conditions: previously published patient sample, cited from earlier work
[2] = tested on: subcutaneous HT1080 (FAP−) and HT1080-hFAP (FAP+) tumors; assay: Pharmacokinetic modeling (2TCM, Patlak) of small animal PET with extracorporeal arterial input function; assay type: in vivo, mouse; set-up: Vs (distribution volume) / k1 / k2 / k3 / k4: unit not given here; conditions: geometric mean ± SD; for Vs (distribution volume) / k1 / k2 / k3 / k3/k4 / k4: 2TCM
Method: Before PET/MRI at day 12, p.i. mice received surgery to establish an extracorporeal circulation shunting of the blood from the femoral artery to the tail vein or contralateral femoral vein as described previously. At 40 cm from the femoral artery, the shunt (0.3 mm inner diameter silicon; total extracorporeal volume 56.6 μL) was led through a Twilite coincidence detector. Acquired blood activity curves were calibrated with a separately measured calibration factor for ^68Ga according to vendor’s instructions. The curves were corrected for delay and dispersion based on a numerical deconvolution, using dispersion kernels derived from measuring step functions at defined pumping speeds. Standard 2-tissue compartmental (2TCM) pharmacokinetic (PK) modeling and Patlak analysis was performed for the triceps muscle, and FAP^− and FAP^+ tumors using PMOD version 3.703 (PMOD Technologies LLC) and was based on mean PET VOI time activity curves and Twilite-based extracorporeal arterial input functions (AIF). AIF plasma fraction was calculated based on direct hematocrit measurements after imaging (StatStrip® Hb/Hct, Nova Biomedical).

Q: Which results are given for `CN(CCCN1CCN(C(=O)CN2CCN(CC(=O)[O-])CCN(CC(=O)[O-])CCN(CC(=O)[O-])CC2)CC1)c1ccc2nccc(C(=O)NCC(=O)N3CC(F)(F)C[C@H]3C#N)c2c1.[68Ga+3]` [^68Ga-FAPI-46, [^68Ga]Ga-FAPI-46]?
A: Blood (prone SUVmean) [1]: 1.7 ± 0.2; Blood (supine SUVmean) [1]: 1.3 ± 0.3; Bone (supine SUVmean) [1]: 0.4 ± 0.1; Breast cancer LN metastasis (supine SUVmax) [1]: 12.2 ± 6.2 (n = 13); Distant metastases any cancer (supine SUVmax) [1]: 12.3 ± 0.2 (n = 2); Kidney (supine SUVmean) [1]: 1.5 ± 0.4; Liver (supine SUVmean) [1]: 0.9 ± 0.3; Muscle (supine SUVmean) [1]: 1.1 ± 0.2; Pancreas (supine SUVmean) [1]: 1.1 ± 0.4; Primary breast cancer (prone SUVmax) [1]: 14.0 ± 5.7 (n = 17); Spleen (supine SUVmean) [1]: 1.1 ± 0.8; Uterus (supine SUVmax) [1]: 11.6 ± 4.5 (n = 18); Uterus (supine SUVmax) ([1]; listed as FAPI-46): 11.6 ± 4.5; Vs (distribution volume) ([2]; tumor FAP+): 0.25 ± 0.29; k1 ([2]; tumor FAP+): 0.042 ± 0.012; k2 ([2]; tumor FAP+): 0.298 ± 0.038; k3 ([2]; tumor FAP+): 0.029 ± 0.024; k3/k4 ([2]; tumor FAP+): 1.77 ± 2.74; k4 ([2]; tumor FAP+): 0.017 ± 0.011; Vs (distribution volume) ([2]; tumor FAP+, listed as FAPI-46): 0.246 ± 0.287; k3/k4 ([2]; tumor FAP+, listed as FAPI-46): 1.770 ± 2.737; Vs (distribution volume) ([2]; tumor FAP−): 0.121 ± 0.227; k1 ([2]; tumor FAP−): 0.049 ± 0.003; k2 ([2]; tumor FAP−): 0.323 ± 0.115; k3 ([2]; tumor FAP−): 0.012 ± 0.031; k3/k4 ([2]; tumor FAP−): 0.801 ± 0.908; k4 ([2]; tumor FAP−): 0.015 ± 0.038; Patlak intercept ([2]; tumor FAP+): 0.176 ± 0.035; Patlak slope ([2]; tumor FAP+): 0.002 ± 0.001; Patlak intercept ([2]; tumor FAP−): 0.207 ± 0.019; Patlak slope ([2]; tumor FAP−): 0.000 ± 0.000
